The values below come from paper PMC5216056 (Nature Communications, 2017).

Usually IC50 stands for the point on the concentration scale where inhibition reaches its midpoint. A word on the EC50: it is the concentration needed to bring the measured effect to its halfway point.

The structures appear in SMILES notation.

In one series the target is T1, hGPR55 (Homo sapiens, UniProt Q9Y2T6).
T1 construct: host or cells: CHO-K1 (PathHunter hGPR55_bgal)
In words: cell-based. The conditions noted are these: β-arrestin recruitment. For orientation: Arrestin recruitment assays detect the binding of arrestin to an activated receptor.

Another series has as its target mouse P-gp (Mus musculus, UniProt P21447). The conditions noted are these: efflux ratio.
For series [1] the following is noted: 1 μM.
Another series concerns the target T2, N muscle-type (h) (Homo sapiens, UniProt P02708+P07510+P11230+Q07001).
T2 construct: CEREP (contract assay)
In words: CEREP panel. The series is classed as binding. The conditions noted are these: 10 µM.

For another series, the target named is T3, MAGL (Homo sapiens, UniProt Q99685).
T3 construct: expressed in transfected cells; host or cells: HEK293T (transient), membrane preparation
T3 sequence (Q99685 1-303): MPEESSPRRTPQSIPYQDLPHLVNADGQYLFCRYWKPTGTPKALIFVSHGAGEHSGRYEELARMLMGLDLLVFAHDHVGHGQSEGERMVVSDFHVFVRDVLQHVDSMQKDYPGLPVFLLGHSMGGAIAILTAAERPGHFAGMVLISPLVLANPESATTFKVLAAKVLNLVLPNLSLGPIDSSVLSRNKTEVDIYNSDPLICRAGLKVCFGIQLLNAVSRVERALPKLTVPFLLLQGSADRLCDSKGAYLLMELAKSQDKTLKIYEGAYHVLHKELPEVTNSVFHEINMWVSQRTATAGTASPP
Kind of series: Biochemical MAGL activity assay. The conditions noted are these: 10 µM. The protocol: Cell culture and membrane preparation were performed as previously described. HEK293T cells (source: Dutch Cancer Institute) were grown in DMEM with stable glutamine and phenolred (PAA), 10% New Born Calf serum, penicillin and streptomycin. Cells were passaged every 2–3 days by resuspending in medium and seeding them to appropriate confluence. Membranes were prepared from transiently transfected HEK293T cells. One day prior to transfection 10^7 cells were seeded in a 15 cm petri dish. Cells were transfected by the addition of a 3:1 mixture of polyethyleneimine (60 μg) and plasmid DNA (20 μg) in 2 ml serum-free medium. The medium was refreshed after 24 h, and after 72 h the cells were harvested by suspending them in 20 ml medium. The suspension was centrifuged for 10 min at 1000, rpm, and the supernatant was removed. The cell pellet was stored at −80 °C until use. Cell pellets were thawed on ice and suspended in lysis buffer A (20 mM HEPES, 2 mM DTT, 0.25 M sucrose, 1 mM MgCl2, […] Benzonase). The suspension was homogenized by polytrone (3 × 7 s) and incubated for 30 min on ice. The suspension was subjected to ultracentrifugation (100,000 × g, 30 min, 4 °C, Beckman Coulter, Type Ti70 rotor) to yield the cytosolic fraction in the supernatant and the membrane fraction as a pellet. The pellet was resuspended in lysis buffer B (20 mM HEPES, 2 mM DTT). The protein concentration was determined with Quick Start Bradford assay (Biorad). The protein fractions were diluted to a total protein concentration of 1 mg ml^−1 and stored in small aliquots at −80 °C until use.
Percentage of inhibition of reference ligands was determined in comparison with an untreated control. […] Fluorescence was measured in 5 min intervals for 60 min.

The target in another series is T4, Human recombinant TRPV1 (Homo sapiens, UniProt Q8NER1).
T4 construct: expressed in transfected cells; host or cells: HEK293 (TRPV1-HEK-293, gift from John Davis, GlaxoSmithKline)
T4 sequence (Q8NER1 whole entry): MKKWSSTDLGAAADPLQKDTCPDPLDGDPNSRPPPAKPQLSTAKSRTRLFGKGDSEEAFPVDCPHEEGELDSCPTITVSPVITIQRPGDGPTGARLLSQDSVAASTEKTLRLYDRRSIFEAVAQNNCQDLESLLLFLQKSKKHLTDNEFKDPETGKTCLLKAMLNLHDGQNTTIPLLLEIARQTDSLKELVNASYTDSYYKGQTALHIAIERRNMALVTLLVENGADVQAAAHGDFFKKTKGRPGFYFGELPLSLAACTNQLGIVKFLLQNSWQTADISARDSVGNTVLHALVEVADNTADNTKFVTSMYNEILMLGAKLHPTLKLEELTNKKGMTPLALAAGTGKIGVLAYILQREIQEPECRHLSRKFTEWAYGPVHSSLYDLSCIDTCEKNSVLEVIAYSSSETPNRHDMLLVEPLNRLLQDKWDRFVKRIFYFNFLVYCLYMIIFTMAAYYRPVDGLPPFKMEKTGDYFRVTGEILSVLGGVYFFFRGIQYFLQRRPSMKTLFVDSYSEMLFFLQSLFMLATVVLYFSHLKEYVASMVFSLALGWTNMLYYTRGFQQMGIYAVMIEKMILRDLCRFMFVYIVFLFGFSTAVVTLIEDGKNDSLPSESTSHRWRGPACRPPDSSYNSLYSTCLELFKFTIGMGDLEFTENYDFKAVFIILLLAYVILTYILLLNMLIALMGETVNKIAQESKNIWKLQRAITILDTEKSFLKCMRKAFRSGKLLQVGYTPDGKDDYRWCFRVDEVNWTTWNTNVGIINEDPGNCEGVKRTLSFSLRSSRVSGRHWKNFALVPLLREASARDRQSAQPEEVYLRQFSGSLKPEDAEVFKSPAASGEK
Kind of series: cell-based. The series is classed as cell-based. The conditions noted are these: for IC50: read-out: TRPV1 IC50 for antagonism or desensitization.

The target of series [2] is T5, hCB1R (Homo sapiens, UniProt P21554).
T5 construct: host or cells: CHO
T5 sequence (P21554 whole entry): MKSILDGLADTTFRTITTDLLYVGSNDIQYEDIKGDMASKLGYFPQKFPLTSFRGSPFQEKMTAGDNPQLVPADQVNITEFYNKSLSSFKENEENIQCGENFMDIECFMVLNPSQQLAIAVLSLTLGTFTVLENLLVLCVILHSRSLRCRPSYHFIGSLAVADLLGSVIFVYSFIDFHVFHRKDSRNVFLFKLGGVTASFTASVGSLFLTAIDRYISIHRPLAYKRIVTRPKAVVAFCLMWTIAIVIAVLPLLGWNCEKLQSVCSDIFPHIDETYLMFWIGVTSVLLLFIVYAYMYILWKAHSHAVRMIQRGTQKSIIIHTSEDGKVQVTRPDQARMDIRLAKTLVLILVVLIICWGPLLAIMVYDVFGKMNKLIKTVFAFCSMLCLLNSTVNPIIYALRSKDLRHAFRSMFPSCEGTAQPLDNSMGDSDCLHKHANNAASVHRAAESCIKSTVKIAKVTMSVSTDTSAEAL
Kind of series: biochemical. In kind it is binding. The conditions noted are these: CHO membranes; Leiden, HU210 and SR144528 from Roche.

In series [3] the target is T5, hCB1R. In words: cell-based.
In series [4] the target is T5, hCB1R. In words: cell-based. The series is classed as cell-based.
Another series deals with T6, FAAH (Homo sapiens, UniProt O00519).
T6 construct: host or cells: U937
T6 sequence (O00519 1-579): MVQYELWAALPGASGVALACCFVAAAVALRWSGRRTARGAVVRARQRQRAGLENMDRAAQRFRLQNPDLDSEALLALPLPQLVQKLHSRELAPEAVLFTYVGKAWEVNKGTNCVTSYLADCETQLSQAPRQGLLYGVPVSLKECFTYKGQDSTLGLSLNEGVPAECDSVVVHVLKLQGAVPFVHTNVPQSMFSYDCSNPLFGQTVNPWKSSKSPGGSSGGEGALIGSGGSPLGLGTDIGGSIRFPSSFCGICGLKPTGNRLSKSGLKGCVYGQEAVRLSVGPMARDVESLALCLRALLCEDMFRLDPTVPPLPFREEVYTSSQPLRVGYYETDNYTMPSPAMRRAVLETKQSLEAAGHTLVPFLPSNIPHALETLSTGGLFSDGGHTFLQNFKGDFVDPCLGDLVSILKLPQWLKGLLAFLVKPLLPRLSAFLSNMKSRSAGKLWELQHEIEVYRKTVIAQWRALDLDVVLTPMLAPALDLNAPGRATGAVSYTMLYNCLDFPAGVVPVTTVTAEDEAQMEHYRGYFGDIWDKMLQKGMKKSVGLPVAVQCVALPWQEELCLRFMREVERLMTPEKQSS
Kind of series: FAAH activity, U937 cell homogenate. In kind it is biochemical. The conditions noted are these: 5 µM, U937 cell homogenate. The protocol:
FAAH activity was assessed using U937 cell homogenate (source: U937 cells were purchased from ATCC, Manassas, VA, USA). Tested compounds (at the concentrations of 1 and 5 μM) or solvent (≤1% of the final volume) were pre-incubated at 37 °C for 30 min with 100 μg of cell homogenate diluted in assay buffer (10 mM Tris-HCl and 1 mM EDTA, pH 7.6 and 1% w/v fatty acid-free BSA). Successively, a mixture of 99.5 nM […] of AEA and 0.5 nM of [ethanolamine-1-3H]-AEA (40–60 Ci mmol^−1) was added to the homogenate (final concentration of 100 nM) and incubated for 10 min at 37 °C under shaking. After the incubation time, 2 volumes of an ice-cold methanol: chloroform mixture 1:1 (v/v) were added to each sample, vigorously vortexed and centrifuged at 10,000g for 10 min at 4 °C to separate aqueous and organic phases. The aqueous phases were collected and the radioactivity associated with the hydrolysis product [3H]-ethanolamine was measured after addition of 3 ml of scintillation cocktail using the Tri-Carb 2100 TR scintillation counter. Data were collected from three independent experiments performed in triplicate and results were expressed as FAAH activity, relative to that in vehicle-treated samples (=100%).

T2 sequence (P02708 21-457): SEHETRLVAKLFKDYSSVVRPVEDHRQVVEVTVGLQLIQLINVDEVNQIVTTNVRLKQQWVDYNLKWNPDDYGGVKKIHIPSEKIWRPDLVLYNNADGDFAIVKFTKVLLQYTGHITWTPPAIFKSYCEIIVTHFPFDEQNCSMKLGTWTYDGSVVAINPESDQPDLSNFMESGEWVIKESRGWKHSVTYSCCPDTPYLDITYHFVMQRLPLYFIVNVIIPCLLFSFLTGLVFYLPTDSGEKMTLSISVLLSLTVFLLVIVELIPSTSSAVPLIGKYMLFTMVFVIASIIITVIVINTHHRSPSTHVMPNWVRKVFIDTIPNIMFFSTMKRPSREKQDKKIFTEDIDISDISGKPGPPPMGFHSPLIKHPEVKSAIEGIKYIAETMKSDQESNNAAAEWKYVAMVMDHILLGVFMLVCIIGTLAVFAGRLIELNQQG
T2 sequence (P11230 24-501): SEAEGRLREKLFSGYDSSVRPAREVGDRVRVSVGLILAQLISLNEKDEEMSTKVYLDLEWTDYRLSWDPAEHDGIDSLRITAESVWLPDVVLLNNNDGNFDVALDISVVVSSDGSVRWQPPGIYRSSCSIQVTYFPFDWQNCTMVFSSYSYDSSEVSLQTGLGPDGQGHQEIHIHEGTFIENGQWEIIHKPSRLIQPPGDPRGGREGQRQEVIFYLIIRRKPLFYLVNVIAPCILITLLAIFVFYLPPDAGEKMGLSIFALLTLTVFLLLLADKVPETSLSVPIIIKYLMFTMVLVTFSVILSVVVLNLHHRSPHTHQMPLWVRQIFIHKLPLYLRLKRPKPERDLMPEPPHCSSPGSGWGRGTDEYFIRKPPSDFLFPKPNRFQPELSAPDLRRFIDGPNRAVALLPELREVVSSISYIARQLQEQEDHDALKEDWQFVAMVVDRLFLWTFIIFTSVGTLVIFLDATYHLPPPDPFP
T2 sequence (Q07001 22-517): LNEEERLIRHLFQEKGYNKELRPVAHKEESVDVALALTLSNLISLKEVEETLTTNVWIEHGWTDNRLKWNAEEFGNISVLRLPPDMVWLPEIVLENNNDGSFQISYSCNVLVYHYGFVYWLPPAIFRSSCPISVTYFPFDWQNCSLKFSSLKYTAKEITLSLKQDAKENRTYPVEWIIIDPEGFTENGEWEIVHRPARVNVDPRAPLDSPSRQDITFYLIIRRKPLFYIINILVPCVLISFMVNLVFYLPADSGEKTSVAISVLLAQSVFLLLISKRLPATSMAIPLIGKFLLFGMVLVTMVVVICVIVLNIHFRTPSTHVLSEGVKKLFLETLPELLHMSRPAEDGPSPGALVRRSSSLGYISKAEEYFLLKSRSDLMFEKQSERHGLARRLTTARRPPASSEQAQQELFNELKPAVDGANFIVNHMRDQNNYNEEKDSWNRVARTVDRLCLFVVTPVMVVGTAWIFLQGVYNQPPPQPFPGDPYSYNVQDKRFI
T2 sequence (P07510 23-517): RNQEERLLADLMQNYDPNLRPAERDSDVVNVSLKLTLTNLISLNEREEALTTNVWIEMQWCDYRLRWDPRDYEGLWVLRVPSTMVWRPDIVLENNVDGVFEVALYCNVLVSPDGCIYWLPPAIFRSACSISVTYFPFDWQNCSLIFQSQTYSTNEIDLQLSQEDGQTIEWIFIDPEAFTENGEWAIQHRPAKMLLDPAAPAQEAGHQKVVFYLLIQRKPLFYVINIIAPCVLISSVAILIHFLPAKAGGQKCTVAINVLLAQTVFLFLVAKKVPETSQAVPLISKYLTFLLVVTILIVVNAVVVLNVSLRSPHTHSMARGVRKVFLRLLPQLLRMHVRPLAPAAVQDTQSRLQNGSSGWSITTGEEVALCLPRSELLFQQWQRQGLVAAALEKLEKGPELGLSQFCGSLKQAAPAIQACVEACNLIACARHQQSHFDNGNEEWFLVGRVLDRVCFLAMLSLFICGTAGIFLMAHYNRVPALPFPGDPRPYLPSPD
T1 sequence (Q9Y2T6 whole entry): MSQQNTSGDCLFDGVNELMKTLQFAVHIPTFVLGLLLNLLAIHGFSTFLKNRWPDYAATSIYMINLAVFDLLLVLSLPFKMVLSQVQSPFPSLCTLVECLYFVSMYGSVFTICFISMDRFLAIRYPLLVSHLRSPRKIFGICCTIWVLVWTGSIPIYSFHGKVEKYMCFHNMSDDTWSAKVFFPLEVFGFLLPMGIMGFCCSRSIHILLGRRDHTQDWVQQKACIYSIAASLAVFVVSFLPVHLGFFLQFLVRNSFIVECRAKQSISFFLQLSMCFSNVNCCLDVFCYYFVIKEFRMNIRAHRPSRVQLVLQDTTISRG
mouse P-gp, sequence (P21447 whole entry): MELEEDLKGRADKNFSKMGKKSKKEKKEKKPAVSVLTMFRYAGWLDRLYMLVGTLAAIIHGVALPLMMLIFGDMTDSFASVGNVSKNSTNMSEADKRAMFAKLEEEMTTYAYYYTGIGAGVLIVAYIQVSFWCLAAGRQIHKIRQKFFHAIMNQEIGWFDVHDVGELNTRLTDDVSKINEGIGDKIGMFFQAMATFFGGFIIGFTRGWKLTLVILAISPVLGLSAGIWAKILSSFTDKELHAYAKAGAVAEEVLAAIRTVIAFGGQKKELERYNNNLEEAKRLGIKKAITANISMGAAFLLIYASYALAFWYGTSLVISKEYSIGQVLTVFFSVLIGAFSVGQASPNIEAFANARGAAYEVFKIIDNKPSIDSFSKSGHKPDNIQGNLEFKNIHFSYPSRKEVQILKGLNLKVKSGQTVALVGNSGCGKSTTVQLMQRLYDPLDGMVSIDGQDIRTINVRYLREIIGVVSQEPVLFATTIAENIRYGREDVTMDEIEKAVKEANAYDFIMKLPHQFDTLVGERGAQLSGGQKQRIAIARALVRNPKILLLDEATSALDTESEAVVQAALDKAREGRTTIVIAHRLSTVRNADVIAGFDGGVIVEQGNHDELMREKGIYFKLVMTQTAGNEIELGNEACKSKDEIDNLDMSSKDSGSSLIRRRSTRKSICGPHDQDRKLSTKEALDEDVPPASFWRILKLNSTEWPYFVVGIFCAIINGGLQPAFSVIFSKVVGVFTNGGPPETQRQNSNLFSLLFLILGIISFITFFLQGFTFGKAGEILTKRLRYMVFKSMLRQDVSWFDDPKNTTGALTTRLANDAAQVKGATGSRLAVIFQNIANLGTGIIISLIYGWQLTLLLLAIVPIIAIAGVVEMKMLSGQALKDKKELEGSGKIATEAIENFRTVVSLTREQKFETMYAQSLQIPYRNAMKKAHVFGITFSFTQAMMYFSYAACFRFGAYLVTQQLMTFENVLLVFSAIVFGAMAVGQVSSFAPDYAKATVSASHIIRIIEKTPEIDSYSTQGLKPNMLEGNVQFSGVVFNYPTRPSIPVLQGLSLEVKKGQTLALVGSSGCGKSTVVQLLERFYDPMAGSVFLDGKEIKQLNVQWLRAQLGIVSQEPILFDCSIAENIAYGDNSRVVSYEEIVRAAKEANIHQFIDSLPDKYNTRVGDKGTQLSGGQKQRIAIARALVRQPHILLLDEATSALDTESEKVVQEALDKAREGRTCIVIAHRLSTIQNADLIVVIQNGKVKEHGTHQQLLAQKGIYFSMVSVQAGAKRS

With `CCCn1c(C)c(C(=O)c2cccc3ccccc23)c2ccccc21` [JWH015], at hGPR55, the “GPR55 pEC50 (± SEM)” value is less than 5. In addition, the “P-gp (ER) mouse” value at mouse P-gp is given as 1.5. This molecule also yielded a CL hepatocytes human in series [1] of 16 µL/min/mio cells. In addition, the “% inhibition N muscle-type (h)” value at N muscle-type (h) is given as -12%. The “MAGL % inhibition at 10 µM ± SD” value on MAGL is given as 0 ± 17%.

For the molecule `COc1ccc(C(=O)c2c(C)n(CCN3CCOCC3)c3cc(I)ccc23)cc1` [AM630], at hGPR55, the “GPR55 pEC50 (± SEM)” value is recorded as less than 5. The “P-gp (ER) mouse” value on mouse P-gp turned out to be 1.3. This molecule yielded a CL hepatocytes human in series [1] of 16 µL/min/mio cells. On Human recombinant TRPV1, the “TRPV1 Efficacy (% ionomycin 4μM)” value is reported as less than 10% and the IC50 was greater than 100 µM. Further, the “% inhibition N muscle-type (h)” value on N muscle-type (h) is listed as 5%. The “MAGL % inhibition at 10 µM ± SD” value on MAGL is reported as 4 ± 16%.

Turning to `CCCCCCC(C)(C)c1cc(OC)c(C2=C[C@H]3CC[C@]2(CO)C3(C)C)c(OC)c1` [HU910], at hGPR55, the “GPR55 Emax ± SEM (%) or % effect at 10 µM” value was -10 ± 3% and the “GPR55 pEC50 (± SEM)” value is less than 5. Besides, the “P-gp (ER) mouse” value at mouse P-gp was 3.0. Further, the CL hepatocytes human in series [1] is 9.2 µL/min/mio cells. Also, the “pKi ± SEM hCB1R” value at hCB1R [2] is listed as less than 5. Further, on hCB1R [3], the “Emax ± SEM cAMP hCB1R” value is 28 ± 8 and the “pEC50 ± SEM cAMP hCB1R” value is reported as less than 5. At Human recombinant TRPV1, the “TRPV1 Efficacy (% ionomycin 4μM)” value is on record as less than 10% and the IC50 was greater than 100 µM. At hCB1R [4], the “Emax ± SEM β-AR recruitment hCB1R” value is -97 ± 4 and the “pEC50 ± SEM β-AR recruitment hCB1R” value was 5.31 ± 0.06. Moreover, the “MAGL % inhibition at 10 µM ± SD” value at MAGL came out at 20 ± 12%. For the same molecule, the “FAAH % inhibition at 5 µM” value at FAAH was less than 25%.

Consider `CN1CCCC[C@H]1Cn1cc(C(=O)c2cc([N+](=O)[O-])ccc2I)c2ccccc21` [(S)-AM1241], for which the “P-gp (ER) mouse” value on mouse P-gp stood at 1.4. Further, in series [1], the CL hepatocytes human is listed as 37 µL/min/mio cells. For the same molecule, the “pKi ± SEM hCB1R” value at hCB1R [2] is reported as less than 5. On hCB1R [3], the “Emax ± SEM cAMP hCB1R” value is 16 ± 2 and the “pEC50 ± SEM cAMP hCB1R” value was less than 5. Moreover, at Human recombinant TRPV1, the “TRPV1 Efficacy (% ionomycin 4μM)” value came out at 12.0% and the IC50 is greater than 50 µM. In addition, the EC50 at Human recombinant TRPV1 (read-out: TRPV1 Potency EC50) was greater than 50 µM. In addition, at hCB1R [4], the “Emax ± SEM β-AR recruitment hCB1R” value amounted to 2 ± 1 and the “pEC50 ± SEM β-AR recruitment hCB1R” value is given as less than 5. The “% inhibition N muscle-type (h)” value at N muscle-type (h) came out at 38%. Also, on MAGL, the “MAGL % inhibition at 10 µM ± SD” value is recorded as -4 ± 18%. Moreover, the “FAAH % inhibition at 5 µM” value at FAAH is reported as less than 25%.
